Structures are written as SMILES. ± gives the expanded uncertainty stated by the source.

The source of these data is the NIST ThermoML archive (doi:10.1016/j.jct.2006.03.006).

For series [1] the following is noted: Liquid; for mass density: 298.15 K, 101.33 kPa, Pycnometric method.
A short description of series [2]: refractive index (Na D-line) (dimensionless). To be noted: 298.15 K; 101.33 kPa; Liquid; Standard Abbe refractometry.

The mass density is mass per unit of volume. What is called vapor or sublimation pressure is the equilibrium pressure above the liquid or solid. The term refractive index denotes a measure of how strongly the sample bends light. `CO` [methanol]: in series [1], the mass density was found to be 786.4 ± 4.6 kg/m3. Further, the “vapor or sublimation pressure” value in series [1] (336.25 K) was found to be 95.5 ± 5 kPa. Also, in series [2], the refractive index was determined as 1.3265 ± 0.0012.

For `Cc1cccc(O)c1` [3-methylphenol], the mass density in series [1] stood at 1030 ± 7.7 kg/m3. Besides, the “vapor or sublimation pressure” value in series [1] (473.75 K) is 95.5 ± 5 kPa. The refractive index in series [2] came to 1.5395 ± 0.0012.

With `CC(C)CO` [2-methyl-1-propanol], in series [1], the mass density amounted to 797.8 ± 4.7 kg/m3. The “vapor or sublimation pressure” value in series [1] (379.65 K) is 95.5 ± 5 kPa. Besides, the refractive index in series [2] is 1.3939 ± 0.0012.

On to `CCC(C)O` (configuration not stated) [butan-2-ol], for which the mass density in series [1] was found to be 802.4 ± 4.7 kg/m3. Besides, the “vapor or sublimation pressure” value in series [1] (371.26 K) is listed as 95.5 ± 5 kPa. Further, in series [2], the refractive index was found to be 1.3953 ± 0.0012.

With `CC(C)(C)O` [2-methylpropan-2-ol], the mass density in series [1] was 781.2 ± 4.5 kg/m3. Also, in series [1] (354.15 K), the “vapor or sublimation pressure” value was 95.5 ± 5 kPa. Besides, in series [2], the refractive index is listed as 1.3852 ± 0.0012.

Regarding `CCO` [ethanol], the mass density in series [1] was 784.9 ± 4.5 kg/m3. For the same compound, the “vapor or sublimation pressure” value in series [1] (349.95 K) is given as 95.5 ± 5 kPa. The refractive index in series [2] worked out at 1.3594 ± 0.0012.

As to `CC(C)O` [propan-2-ol], in series [1], the mass density was 781.3 ± 4.5 kg/m3. In addition, in series [1] (355.05 K), the “vapor or sublimation pressure” value amounted to 95.5 ± 5 kPa. In series [2], the refractive index turned out to be 1.3752 ± 0.0012.

On to `CCCCO` [butan-1-ol], for which, in series [1], the mass density came to 805.8 ± 4.8 kg/m3. The “vapor or sublimation pressure” value in series [1] (389.35 K) worked out at 95.5 ± 5 kPa. Further, the refractive index in series [2] amounted to 1.3974 ± 0.0012.

For the compound `CCCO` [propan-1-ol], the mass density in series [1] came out at 799.6 ± 4.7 kg/m3. Further, the “vapor or sublimation pressure” value in series [1] (368.85 K) turned out to be 95.5 ± 5 kPa. Besides, the refractive index in series [2] turned out to be 1.3837 ± 0.0012.
